Measurements published in BindingDB's records for doi:10.1016/j.bioorg.2016.03.010 (Universiti Teknologi Mara (Uitm), Puncak Alam Campus, 2016).

biological target: Urease (Canavalia ensiformis, UniProt P07374); experiment: Urease Inhibition Assay; conditions: pH 6.8; 30 °C
Protocol: To understand the binding modes of the compounds given in Table 1, all ligands were docked into the binding site of Urease enzyme. The top ranked conformations of each ligand were saved in a separate database for further evaluation. The docking results well correlated with the experimental results. The reaction mixtures, comprising 25 uL of enzyme (jack bean urease, Sigma aldrich) solution and 55 uL of buffers containing 100 mM urea, were incubated with 5 uL of the test compounds (0.5 mM concentration) at 30 °C for 15 min in 96-well plates. For the kinetics assessment the urea concentrations were changed from 2 to 24 mM. Urease activity was determined by measuring ammonia production using the indophenol method as described by Weatherburn. Briefly, 45 uL of phenol reagent (1% w/v phenol and 0.005% w/v sodium nitroprusside (Sigma Aldrich)) and, 70 uL of alkali reagent (0.5% w/v NaOH (Sigma Aldrich) and 0.1% active chloride NaOCl (Sigma Aldrich)) were added to each well. The increasing absorbance at 630 nm was measured after 50 min, using a microplate reader (Molecular Device, USA). All reactions were performed in triplicate in a final volume of 200 uL. The results (change in absorbance per min) were processed by using SoftMax-Pro software (molecular Device, USA). The entire assays were performed at pH 6.8.

Sequence of Urease (P07374 whole entry): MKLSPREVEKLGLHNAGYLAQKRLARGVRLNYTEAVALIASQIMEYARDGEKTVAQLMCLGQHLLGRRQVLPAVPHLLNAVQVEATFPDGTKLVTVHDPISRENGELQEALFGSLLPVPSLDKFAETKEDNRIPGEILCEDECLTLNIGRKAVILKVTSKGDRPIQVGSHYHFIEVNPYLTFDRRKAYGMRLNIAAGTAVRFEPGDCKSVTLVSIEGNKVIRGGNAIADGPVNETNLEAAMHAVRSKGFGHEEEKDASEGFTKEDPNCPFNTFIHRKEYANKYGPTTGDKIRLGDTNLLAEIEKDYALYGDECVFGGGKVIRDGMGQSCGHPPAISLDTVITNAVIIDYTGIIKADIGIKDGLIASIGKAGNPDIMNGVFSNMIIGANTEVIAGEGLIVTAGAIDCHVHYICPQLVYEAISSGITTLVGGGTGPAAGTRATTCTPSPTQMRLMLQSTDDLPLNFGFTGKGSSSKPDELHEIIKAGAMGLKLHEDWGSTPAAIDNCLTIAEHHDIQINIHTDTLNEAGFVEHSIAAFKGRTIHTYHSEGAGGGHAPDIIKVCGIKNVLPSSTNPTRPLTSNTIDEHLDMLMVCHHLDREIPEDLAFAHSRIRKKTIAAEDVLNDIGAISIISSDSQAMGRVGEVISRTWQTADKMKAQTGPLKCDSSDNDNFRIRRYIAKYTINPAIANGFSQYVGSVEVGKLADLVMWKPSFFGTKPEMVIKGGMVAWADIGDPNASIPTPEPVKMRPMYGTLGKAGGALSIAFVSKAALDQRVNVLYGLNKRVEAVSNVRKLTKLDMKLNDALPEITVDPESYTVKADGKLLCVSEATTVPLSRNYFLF

| SMILES | IC50 |
| --- | --- |
| COc1ccc(NC(=S)NNC(=O)c2ccc(-c3nc4ccccc4s3)cc2)cc1 [2-(4-(benzo[d]thiazol-2-yl)benzoyl)-N-(4-methoxyphenyl)hydrazinecarbothioamide (9)] | 13.6 µM |
| O=C(NNC(=S)Nc1ccc([N+](=O)[O-])cc1)c1ccc(-c2nc3ccccc3s2)cc1 [2-(4-(benzo[d]thiazol-2-yl)benzoyl)-N-(4-nitrophenyl)hydrazinecarbothioamide (10)] | 1.4 µM |
| Cc1ccccc1NC(=S)NNC(=O)c1ccc(-c2nc3ccccc3s2)cc1 [2-(4-(benzo[d]thiazol-2-yl)benzoyl)-N-(o-tolyl)hydrazinecarbothioamide (1)] | 7.4 µM |
| O=C(NNC(=S)NC12CC3CC(CC(C3)C1)C2)c1ccc(-c2nc3ccccc3s2)cc1 [N-(adamantan-1-yl)-2-(4-(benzo[d]thiazol-2-yl)benzoyl)hydrazinecarbothioamide (19)] | 34.4 µM |
| O=C(NNC(=S)Nc1ccc(Cl)cc1)c1ccc(-c2nc3ccccc3s2)cc1 [2-(4-(benzo[d]thiazol-2-yl)benzoyl)-N-(4-chlorophenyl)hydrazinecarbothioamide (8)] | 5.5 µM |
| O=C(NNC(=S)Nc1ccc(C(F)(F)F)cc1)c1ccc(-c2nc3ccccc3s2)cc1 [2-(4-(benzo[d]thiazol-2-yl)benzoyl)-N-(4-(trifluoromethyl)phenyl)hydrazine-carbothioamide (17)] | 1.6 µM |
| O=C(NNC(=S)Nc1ccccc1F)c1ccc(-c2nc3ccccc3s2)cc1 [2-(4-(benzo[d]thiazol-2-yl)benzoyl)-N-(2-fluorophenyl)hydrazinecarbothioamide (2)] | 3.4 µM |
| O=C(NNC(=S)Nc1cccc([N+](=O)[O-])c1)c1ccc(-c2nc3ccccc3s2)cc1 [4-(1,3-benzothiazol-2-yl)-N-{[(3-nitrophenyl)carbamothioyl]amino}benzamide (14)] | 5.7 µM |
| O=C(NNC(=S)Nc1cccc(F)c1)c1ccc(-c2nc3ccccc3s2)cc1 [2-(4-(benzo[d]thiazol-2-yl)benzoyl)-N-(3-fluorophenyl)hydrazinecarbothioamide (12)] | 6.3 µM |
| COc1cccc(NC(=S)NNC(=O)c2ccc(-c3nc4ccccc4s3)cc2)c1 [2-(4-(benzo[d]thiazol-2-yl)benzoyl)-N-(3-methoxyphenyl)hydrazinecarbothioamide (15)] | 28.1 µM |
| Cc1ccc(NC(=S)NNC(=O)c2ccc(-c3nc4ccccc4s3)cc2)cc1 [2-(4-(benzo[d]thiazol-2-yl)benzoyl)-N-(p-tolyl)hydrazinecarbothioamide (5)] | 10.4 µM |
| O=C(NNC(=S)Nc1cccc(Br)c1)c1ccc(-c2nc3ccccc3s2)cc1 [4-(1,3-benzothiazol-2-yl)-N-{[(3-bromophenyl)carbamothioyl]amino}benzamide (13)] | 11.4 µM |
| Cc1cccc(NC(=S)NNC(=O)c2ccc(-c3nc4ccccc4s3)cc2)c1 [2-(4-(benzo[d]thiazol-2-yl)benzoyl)-N-(m-tolyl)hydrazinecarbothioamide (11)] | 18.7 µM |
| O=C(NNC(=S)Nc1ccc(F)cc1)c1ccc(-c2nc3ccccc3s2)cc1 [2-(4-(benzo[d]thiazol-2-yl)benzoyl)-N-(4-fluorophenyl)hydrazinecarbothioamide (6)] | 2.5 µM |
| O=C(NNC(=S)Nc1ccc(Br)cc1)c1ccc(-c2nc3ccccc3s2)cc1 [2-(4-(benzo[d]thiazol-2-yl)benzoyl)-N-(4-bromophenyl)hydrazinecarbothioamide (7)] | 13.7 µM |
| O=C(NNC(=S)Nc1ccccc1Cl)c1ccc(-c2nc3ccccc3s2)cc1 [2-(4-(benzo[d]thiazol-2-yl)benzoyl)-N-(2-chlorophenyl)hydrazinecarbothioamide (3)] | 4.3 µM |
| O=C(NNC(=S)Nc1ccccc1)c1ccc(-c2nc3ccccc3s2)cc1 [2-(4-(benzo[d]thiazol-2-yl)benzoyl)-N-phenylhydrazinecarbothioamide (20)] | 19.1 µM |
| O=C(NNC(=S)Nc1ccccc1Br)c1ccc(-c2nc3ccccc3s2)cc1 [2-(4-(benzo[d]thiazol-2-yl)benzoyl)-N-(2-bromophenyl)hydrazinecarbothioamide (4)] | 6.9 µM |
